The values below come from patent publication US20180161295A1, “TREATMENT OF CLOSED HEAD INJURY AND HEMORRHAGIC STROKE WITH HBED” (University of Florida Research Foundation, Incorporated, priority 2014, published 2018).

Series [1] concerns non-iron-loaded beagle dogs. Nature of the series: 28-day intravenous repeat dose toxicity study, non-iron-loaded (normal) dogs. In kind it is in vivo. Here is the method:
(§1) 28-Day Intravenous Repeat Dose Toxicity Study of NaHBED in Male and Female Dogs SRI Study.
(§2) Male and female beagle dogs were either infused biweekly with iron dextran to a level of approximately 500 mg iron/kg body weight or held without iron loading during the 2-month pretreatment phase. All dogs were held an additional 2 ½ months before beginning dose administration with N,N′-di(2-hydroxybenzypethylenediarnine-N,N′-diacetic acid, monosodium salt (NaHBED). Groups of 4 male and 4 female dogs that had been iron-loaded received NaHBED at 21.46, 64.38, or 128.76 mg/kg daily in 15-35 min intravenous (i.v.) infusions for 28 consecutive days; a non-iron-loaded group containing the same number of dogs of each sex received 21.46 mg NaHBED/kg/day i.v. during the same period. Vehicle-only control groups of iron-loaded and non-iron-loaded dogs (3 males and 3 females per group) were subjected to the same regimen concurrently. […] During the treatment period, clinical observations on the animals were made daily after dosing. Body weights were measured before the start of dosing with NaHBED, weekly during the 28-day treatment period, and at study termination when recovery animals were sacrificed; food consumption was measured weekly during the treatment period. Hematology and clinical chemistry parameters, including serum iron parameters, were assessed at Weeks-1, 2, 4, and 8. Urinalysis was performed on bladder urine samples at necropsy. Plasma samples were collected for drug level analysis at selected timepoints after dosing on the first day and 28 days later. Routine ophthalmologic examinations and cardiovascular evaluations were conducted during the week prior to dose administration and during the third and fourth (eye exams) or fourth (cardiology exams) weeks of NaHBED administration. Organ weights were measured at necropsy and organ-to-body and -brain ratios determined. Gross and microscopic examination of a complete set of tissues was performed on iron-loaded high dose (128.76 mg/kg/day) and control groups and on non-iron-loaded low dose (21.46 mg/kg/day) and control groups. Specimens from liver, heart, spleen, lung, kidney, and eye were taken from each dog at necropsy for subsequent tissue analyses of iron and zinc content.

Another series deals with mTBI animals. The series can be described thus: Lower limb spasticity (velocity dependent ankle torque and triceps EMG) after weight drop closed head injury (mTBI). Particulars: 50 mg/kg s.c. 2x per day for 2 weeks, PO Wk-1 and PO Wk-3. The series is classed as in vivo, rats. Here is the method:
Ankle torque, displacement and EMGs are simultaneously recorded and time-locked to onset of dorsiflexion. Velocity dependent ankle torque was tested between 49 and 612 degrees/sec dorsiflexion in awake rats.
These experiments were performed to assess the influence of treatment using NaHBED following mTBI. Fifteen mTBIs were performed as described above, using 450×1.25m weight drop closed head injury. The animals were randomly divided into two groups, control (n=5) and iron chelator (IC) NaHBED treatment (n=10). Beginning on the first day following injury, NaHBED was delivered by subcutaneous injection of 50 mg/kg, 2× per day, for a total dosage of 100 mg/kg/body weight/day. NaHBED 60 mg/ml, was dissolved in deionized, sterilized, iron-free water. The IC was administered every day for 2 weeks. The control animals received equal volume subcutaneous injections of saline.
Spasticity: The influence of treatment was tested by analysis of lower limb spasticity (velocity dependent ankle torque and triceps EMG), in mTBI treated and non-treated mTBI animals. A normal ICT group (Normal HBED) was also included as a treatment control.

The next series deals with iron-loaded beagle dogs. Nature of the series: 28-day intravenous repeat dose toxicity study, iron-loaded dogs. The series is classed as in vivo. Here is the method:
as §1, §2

A short description of series [2]: Toxicokinetics (plasma drug level analysis) in the 28-day i.v. dog study. The series is classed as in vivo, beagle dogs. The protocol: Male and female beagle dogs were either infused biweekly with iron dextran to a level of approximately 500 mg iron/kg body weight or held without iron loading during the 2-month pretreatment phase. […] During the treatment period, clinical observations on the animals were made daily after dosing. Body weights were measured before the start of dosing with NaHBED, weekly during the 28-day treatment period, and at study termination when recovery animals were sacrificed; food consumption was measured weekly during the treatment period. Hematology and clinical chemistry parameters, including serum iron parameters, were assessed at Weeks-1, 2, 4, and 8. Urinalysis was performed on bladder urine samples at necropsy. Plasma samples were collected for drug level analysis at selected timepoints after dosing on the first day and 28 days later. Routine ophthalmologic examinations and cardiovascular evaluations were conducted during the week prior to dose administration and during the third and fourth (eye exams) or fourth (cardiology exams) weeks of NaHBED administration. Organ weights were measured at necropsy and organ-to-body and -brain ratios determined. […] Specimens from liver, heart, spleen, lung, kidney, and eye were taken from each dog at necropsy for subsequent tissue analyses of iron and zinc content.

Where [3] appears, read: non-iron-loaded dogs, 21.46 mg/kg/day i.v., at necropsy.
The mark [4] stands for this setting: non-iron-loaded dogs, 21.46 mg/kg/day i.v., statistically significant for males on Day 15.
Where [5] appears, read: repeated daily i.v. doses, iron-loaded beagle dogs, 28 days.

“Also recorded” adds a separate entry of the source.

`O=C([O-])CN(CCN(CC(=O)O)Cc1ccccc1O)Cc1ccccc1O.[Na+]` [NaHBED]: the “mobilization and excretion of iron and zinc” value in series [1] (non-iron-loaded dogs, 21.46 mg/kg/day dose level, monosodium salt, 21.46 mg/kg/day) was “induced mobilization and enhanced excretion; also recorded: clear indication”. In series [1] (non-iron-loaded dogs, 21.46 mg/kg/day i.v., 28 days), the other effects result is listed as “No other effects”. Besides, in series [1] (setting [3]), the “iron content of kidneys” value is given as “dramatic decrease” and the “zinc content of kidneys” value is “dramatic decrease”. Also, the urine coloration result in series [1] (non-iron-loaded dogs, 21.46 mg/kg/day i.v., occasionally) is “slightly red coloration”. For the same compound, in series [1] (setting [4]), the iron-to-transferrin ratio entry is given as “apparent elevation” and the serum iron entry is “apparent elevation”. The “iron and zinc in kidneys, females” value in series [1] (non-iron-loaded female dogs, 21.46 mg/kg/day i.v., at necropsy) was “virtual absence of either ion”. Also, in the series on mTBI animals, the “amplitudes of time locked EMGs” value is given as “significantly lower” and the “amplitudes of velocity dependent ankle torques” value is on record as “significantly lower”. Further, the “histopathologic findings clearly associated with administration” value in the series on iron-loaded beagle dogs (daily i.v. for 28 days) is recorded as “no histopathologic findings”. Moreover, the “effects on body weight and food consumption; ophthalmologic, cardiovascular, hematology, clinical chemistry and urinalysis parameters; organ weights or weight ratios” value in the series with iron-loaded beagle dogs (iron-loaded dogs, daily i.v. for 28 days) was “no distinguishable effects”. Besides, the observable adverse effects result in the series with iron-loaded beagle dogs (iron-loaded dogs, high dose level (128.76 mg/kg/day i.v., 28 days)) is listed as “emesis and/or diarrhea”. Moreover, the “mean kidney iron content” value in the series with iron-loaded beagle dogs (iron-loaded male groups, at necropsy) is given as “statistically lower”. Also, the kidney zinc content result in the series on iron-loaded beagle dogs (iron-loaded, high dose level group, at necropsy) is “statistically lower”. For the same compound, the urine coloration entry in the series on iron-loaded beagle dogs (majority of dogs at all dose levels, most of the treatment period) was “Reddish urine”. For the same compound, in the series with iron-loaded beagle dogs (setting [5]), the “maximum tolerated dose (MTD) level” value is on record as > 128.76 mg/kg/day and the “no observable adverse effect level (NOAEL)” value came out at 64.38 mg/kg/day. Further, in series [2] (daily i.v., Day 28 vs Day 1), the “total body clearance, Day 28 relative to Day 1” value is recorded as “correspondingly elevated” and the “volume of distribution, Day 28 relative to Day 1” value is “correspondingly elevated”. For the same compound, the “toxicokinetic parameters, iron-loaded versus non-iron-loaded dogs” value in series [2] (same dose level) is on record as “similar”.
